Data as given in US20240124387A1, “ACID RECOVERY” (GREENCOVERY B.V., priority 2021, published 2024).
Marks after values point to notes of the source that are not given here.

Legend:
[1] = Precipitation stage: eluate (desorption) samples sparged with CO2, acid quantified again; type: physicochemical; settings: for reduction of amino acid concentration in solution (in the eluate) after CO2 sparging: eluate samples with highest amino acid content, 0.425 M KOH in 93.5 wt. % ethanol; for reduction of organic acid concentration in solution after sparging with CO2: desorption samples of Example 1 (90 wt. % ethanol, 1M KOH)
Protocol: In the precipitation stage, the desorption samples were sparged with CO2, and the organic acids were quantified again the precipitation stage.
The eluate was separated into four samples of 7.5 mL each.

[2] = Precipitation with CO2 in solutions containing different amino acids, ethanol and water (table 3); type: physicochemical; settings: for Concentration of amino acid in the liquid, Before precipitation / Concentration of amino acid in the liquid, After precipitation / Precipitate: 0.5M NaOH; for Concentration of amino acid in the liquid, After precipitation / Precipitate: after CO2; for Precipitate: includes sodium (bi)carbonate; for share of the amino acid precipitated when providing CO2: 80 wt. % ethanol
From the text: A variety of eluates, comprising different amino acids, and solvent concentrations were subjected to the precipitation stage as summarized in table 3: […]

[3] = 20 wt. % water, 80% wt. % ethanol
[4] = 37.6 wt. % water, 62.4 wt. % ethanol
[5] = 50 wt. % water, 50 wt. % ethanol
[6] = second 7.5 mL eluate sample, 90 wt. % methanol, 0.85M KOH

| SMILES | reduction of amino acid concentration in solution (in the eluate) after CO2 sparging [1] | Concentration of amino acid in the liquid, Before precipitation [2, 3] | Concentration of amino acid in the liquid, After precipitation [2, 3] | Precipitate [2, 3] | Concentration of amino acid in the liquid, Before precipitation [2, 4] | Concentration of amino acid in the liquid, After precipitation [2, 4] | Precipitate [2, 4] | Concentration of amino acid in the liquid, Before precipitation [2, 5] | Concentration of amino acid in the liquid, After precipitation [2, 5] | Precipitate [2, 5] | behaviour of the amino acid when providing CO2 ([2]; 50 wt. % ethanol) | behaviour of the amino acid when providing CO2 ([2]; 62.4% ethanol) | share of the amino acid precipitated when providing CO2 [2] | concentration in eluate sample after CO2 sparging [1, 6] | concentration in eluate sample before CO2 sparging [1, 6] | reduction of glutamic acid concentration in solution after CO2 sparging ([1]; 0.85 M KOH in 90 wt. % ethanol (AA4)) | reduction of glutamic acid concentration in solution after CO2 sparging ([1]; 1M NaOH in 62.4 wt. % ethanol (AA5)) | reduction of organic acid concentration in solution after sparging with CO2 [1] |
| --- | --- | --- | --- | --- | --- | --- | --- | --- | --- | --- | --- | --- | --- | --- | --- | --- | --- | --- |
| NCCCC[C@H](N)C(=O)O [Lysine] |  | 10.3 g/L | 3400 µg/mL | 32.5 g/L | 10.4 g/L | 10300 µg/mL | 22.0 g/L | 10.3 g/L | 10600 µg/mL | 25.9 g/L |  |  |  |  |  |  |  |  |
| CCCCCC(=O)O [caproate, caproic acid] |  |  |  |  |  |  |  |  |  |  |  |  |  |  |  |  |  | (essentially) no reduction |
| N[C@@H](CCC(=O)[O-])C(=O)[O-].[Na+].[Na+] [Sodium glutamate] |  | 10.1* g/L | 800 µg/mL | 35.5 g/L | 10.1 g/L | 4300 µg/mL | 34.1 g/L | 10.1 g/L | 10800 µg/mL | 17.5 g/L | remained in solution | partially precipitated | over 90% |  |  |  |  |  |
| N[C@@H](Cc1ccccc1)C(=O)O [Phenylalanine] |  | 10.3 g/L | 3600 µg/mL | 27.4 g/L | 10.2 g/L | 9100 µg/mL | 20.6 g/L | 10.3 g/L | 10300 µg/mL | 16.9 g/L |  |  |  |  |  |  |  |  |
| CC(O)C(=O)O (stereo not drawn) [lactate, lactic acid] |  |  |  |  |  |  |  |  |  |  |  |  |  |  |  |  |  | (essentially) no reduction |
| N[C@@H](CCC(=O)O)C(=O)O [Glutamic acid] | approximately 68% | 10.1* g/L | 700 µg/mL | 33.7 g/L | 10.1 g/L | 4800 µg/mL | 30.5 g/L |  |  |  |  |  |  |  |  | approximately 74% | approximately 90% |  |

Now from value to compound, other results behind:

| reduction of amino acid concentration in solution (in the eluate) after CO2 sparging [1] | Concentration of amino acid in the liquid, Before precipitation [2, 3] | Concentration of amino acid in the liquid, After precipitation [2, 3] | Precipitate [2, 3] | Concentration of amino acid in the liquid, Before precipitation [2, 4] | Concentration of amino acid in the liquid, After precipitation [2, 4] | Precipitate [2, 4] | Concentration of amino acid in the liquid, Before precipitation [2, 5] | Concentration of amino acid in the liquid, After precipitation [2, 5] | Precipitate [2, 5] | behaviour of the amino acid when providing CO2 ([2]; 50 wt. % ethanol) | behaviour of the amino acid when providing CO2 ([2]; 62.4% ethanol) | share of the amino acid precipitated when providing CO2 [2] | concentration in eluate sample after CO2 sparging [1, 6] | concentration in eluate sample before CO2 sparging [1, 6] | reduction of glutamic acid concentration in solution after CO2 sparging ([1]; 0.85 M KOH in 90 wt. % ethanol (AA4)) | reduction of glutamic acid concentration in solution after CO2 sparging ([1]; 1M NaOH in 62.4 wt. % ethanol (AA5)) | SMILES | reduction of organic acid concentration in solution after sparging with CO2 [1] |
| --- | --- | --- | --- | --- | --- | --- | --- | --- | --- | --- | --- | --- | --- | --- | --- | --- | --- | --- |
| ~31% |  |  |  |  |  |  |  |  |  |  |  |  |  |  |  |  | C[C@H](N)C(=O)O [alanine, L-alanine] |  |
|  | 10.2 g/L | 4100 µg/mL | 27.4 g/L | 10.2 g/L | 9600 µg/mL | 21.2 g/L | 10.3 g/L | 9600 µg/mL | 15.2 g/L |  |  |  |  |  |  |  | CSCC[C@H](N)C(=O)O [Methionine] |  |
|  |  |  |  |  |  |  |  |  |  |  |  |  | 24300 µg/mL | 24600 µg/mL |  |  | CC(=O)O [acetate] |  |
| > 99% | 10.3 g/L | 9100 µg/mL | 20.7 g/L | 9.6 g/L | 9700 µg/mL | 18.1 g/L | 10.2 g/L | 10200 µg/mL | 12.6 g/L | remained in solution | remained in solution | less than 10% |  |  |  |  | CC(C)C[C@H](N)C(=O)O [Leucine, L-leucine] |  |
